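Growth conditions: 96-well plates. Treatment: test compound, 48 hours, 5 concentrations. Analysis: linear interpolation between bracketing concentrations; unreached endpoints set to highest concentration. GI50: concentration for 50% inhibition of growth. TGI denotes the concentration required for complete inhibition of growth.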 A value given as a limit tells only on which side of the number the result lay.

Test systems include EKVX NSCLC; HCC-2998 colon; HCT-116 colon; HOP-62 NSCLC; HT29 colon; M14 melanoma; MDA-MB-435; SF-268 CNS; SK-OV-3 ovarian; SW-620 colon.
Common to all, as to assay: growth of human tumour cells (NCI), 48 h

With `N/C(=N\c1nc2ccccc2s1)NC(=NC1CCCCC1)NC1CCCCC1`, the GI50 with EKVX NSCLC is 1.51 µM; in the experiment on HCC-2998 colon, 1.58 µM; in the experiment with HCT-116 colon it was 1.43 µM; in the experiment on HOP-62 NSCLC, 1.78 µM; with HT29 colon, 1.63 µM; with M14 melanoma, 1.63 µM. Also, the GI50 in the experiment with MDA-MB-435 was 1.44 µM; with SF-268 CNS it was 1.81 µM; in the experiment on SK-OV-3 ovarian, 1.84 µM; in the experiment with SW-620 colon it was 1.65 µM. The TGI in the experiment on EKVX NSCLC worked out at 2.93 µM; in the experiment on HCC-2998 colon it was 2.98 µM; in the experiment on HCT-116 colon, 3.01 µM; with HOP-62 NSCLC, 3.99 µM; with HT29 colon, 3.66 µM; with M14 melanoma, 3.31 µM. The TGI is 2.8 µM with MDA-MB-435, 3.65 µM in the experiment with SF-268 CNS, 3.53 µM in the experiment on SK-OV-3 ovarian and 3.33 µM with SW-620 colon.

As for `COc1cc2c(c(OC)c1OC)-c1c(cc3c(c1OC)OCO3)CC(C)C(C)(O)C2OC(=O)c1ccccc1` (stereo not given), the TGI is > 100 µM with EKVX NSCLC; > 100 µM in the experiment with HCC-2998 colon; > 100 µM in the experiment on HCT-116 colon; > 100 µM with HOP-62 NSCLC; 75.6 µM in the experiment on HT29 colon; > 100 µM in the experiment with M14 melanoma. Also, the TGI with MDA-MB-435, with SF-268 CNS, in the experiment on SK-OV-3 ovarian and in the experiment on SW-620 colon was > 100 µM in each case.

As to `O=S(=O)(NC1=NCCN1C(=S)SN1CCn2c1nsc2=S)c1cccc(OC(F)(F)F)c1`, the GI50 in the experiment with EKVX NSCLC is 44 µM; with HCC-2998 colon, 5.16 µM; with HCT-116 colon, 10.2 µM; in the experiment on HOP-62 NSCLC, 8 µM; with HT29 colon, 6.91 µM; with M14 melanoma it was 13 µM. Further, the GI50 is 5.86 µM with MDA-MB-435, 11.2 µM with SF-268 CNS, 23.5 µM in the experiment on SK-OV-3 ovarian and 6.7 µM in the experiment with SW-620 colon. The TGI in the experiment with EKVX NSCLC was > 100 µM; in the experiment on HCC-2998 colon, 16.1 µM; with HCT-116 colon, 21.9 µM; in the experiment with HOP-62 NSCLC, 20.3 µM; in the experiment with HT29 colon it was 26.4 µM; in the experiment with M14 melanoma, 28.1 µM. Besides, the TGI in the experiment with MDA-MB-435 was 22.1 µM; with SF-268 CNS, 34.4 µM; with SK-OV-3 ovarian it was 46.5 µM; in the experiment with SW-620 colon, > 100 µM.

Take `CN(c1ccc(C#N)c(Cl)c1)C1CCC(NC(=O)c2ccc(N3CCN(C4CN(c5ccc6c(c5)C(=O)N(C5CCC(=O)NC5=O)C6=O)C4)CC3)cc2)CC1` (stereo not given): the GI50 was > 100 µM in the experiment on EKVX NSCLC; > 100 µM in the experiment with HCC-2998 colon; > 100 µM with HCT-116 colon; > 100 µM with HOP-62 NSCLC; > 100 µM with HT29 colon; 21.7 µM in the experiment with M14 melanoma. Moreover, the GI50 with MDA-MB-435, in the experiment on SF-268 CNS, in the experiment with SK-OV-3 ovarian and in the experiment with SW-620 colon was > 100 µM throughout. In addition, the TGI in the experiment with EKVX NSCLC was > 100 µM; with HCC-2998 colon, > 100 µM; in the experiment on HCT-116 colon, > 100 µM; with HOP-62 NSCLC, > 100 µM; with HT29 colon, > 100 µM; in the experiment on M14 melanoma, 64.3 µM. The TGI with MDA-MB-435, with SF-268 CNS, with SK-OV-3 ovarian and in the experiment with SW-620 colon was > 100 µM in each case.

For `CN1CCN(c2cc3nc4ccccc4n(-c4ccc(Cl)cc4)c-3cc2=N)CC1`, the GI50 was 30 µM with EKVX NSCLC; 23.1 µM in the experiment with HCC-2998 colon; 22.2 µM in the experiment on HCT-116 colon; 23.3 µM in the experiment with HOP-62 NSCLC; > 100 µM in the experiment on HT29 colon; 21.4 µM with M14 melanoma. Besides, the GI50 in the experiment on MDA-MB-435 is 17.5 µM; with SF-268 CNS, 32.1 µM; in the experiment with SK-OV-3 ovarian, > 100 µM; with SW-620 colon it was 23.9 µM. Further, the TGI with EKVX NSCLC was > 100 µM; in the experiment on HCC-2998 colon, 54.9 µM; with HCT-116 colon, 57.2 µM; in the experiment with HOP-62 NSCLC it was 65 µM; with HT29 colon it was > 100 µM; with M14 melanoma, 43.8 µM. The TGI in the experiment with MDA-MB-435 was 32.6 µM; in the experiment with SF-268 CNS, > 100 µM; in the experiment with SK-OV-3 ovarian, > 100 µM; in the experiment with SW-620 colon it was > 100 µM.

Take `CC(=O)OC(C)C(OC(C)=O)C(OC(C)=O)C(/C=C/C1CC=CC(=O)O1)OC(C)=O` (stereo not given): the GI50 was 39.6 µM in the experiment on EKVX NSCLC; 22.9 µM with HCC-2998 colon; 20.4 µM with HCT-116 colon; 37.8 µM in the experiment with HOP-62 NSCLC; 15.8 µM in the experiment with HT29 colon; 29.5 µM in the experiment on M14 melanoma. Further, the GI50 was 37.6 µM in the experiment with MDA-MB-435, 27.5 µM in the experiment with SF-268 CNS, 78 µM with SK-OV-3 ovarian and 16.1 µM in the experiment on SW-620 colon. Moreover, the TGI with EKVX NSCLC was > 100 µM; in the experiment on HCC-2998 colon, 45.3 µM; with HCT-116 colon it was 48.4 µM; with HOP-62 NSCLC, > 100 µM; in the experiment on HT29 colon, 47.7 µM; in the experiment on M14 melanoma it was > 100 µM. For the same compound, the TGI was > 100 µM with MDA-MB-435, 75.7 µM in the experiment on SF-268 CNS, > 100 µM with SK-OV-3 ovarian and 46.3 µM in the experiment with SW-620 colon.

With `O=NN(CCCl)C(=O)NC1CCC(=O)NC1=O` (stereo not given), the TGI with EKVX NSCLC was 515 µM; in the experiment on HCC-2998 colon, > 1160 µM; in the experiment on HCT-116 colon, 605 µM; with HOP-62 NSCLC, 505 µM; in the experiment on HT29 colon, > 1250 µM; in the experiment on M14 melanoma, 905 µM. Further, the TGI in the experiment on MDA-MB-435 was 442 µM; in the experiment on SF-268 CNS, 615 µM; in the experiment on SK-OV-3 ovarian, > 1010 µM; with SW-620 colon it was 270 µM.

The values above are taken from PubChem BioAssay (NCI).
